Patent US20230080054A1 (ILDONG PHARMACEUTICAL CO., LTD., priority 2021, published 2023)

Key:
human ANO6 [1] = target: T1, human ANO6 (Homo sapiens, UniProt Q4KMQ2); assay: LACT C2 assay (phosphatidylserine scramblase function assay); assay type: cell-based; details: FRT cells expressing human ANO6, 10 μM ionomycin; for inhibition at 0.1 µM: test compound 100 nM, read-out: Inhibition Level 100 nM; for inhibition at 1 µM: test compound 1 μM, read-out: Inhibition Level 1 μM
T1 construct: expressed in transfected cells
T1 sequence (Q4KMQ2 1-931 isoform Q4KMQ2-2): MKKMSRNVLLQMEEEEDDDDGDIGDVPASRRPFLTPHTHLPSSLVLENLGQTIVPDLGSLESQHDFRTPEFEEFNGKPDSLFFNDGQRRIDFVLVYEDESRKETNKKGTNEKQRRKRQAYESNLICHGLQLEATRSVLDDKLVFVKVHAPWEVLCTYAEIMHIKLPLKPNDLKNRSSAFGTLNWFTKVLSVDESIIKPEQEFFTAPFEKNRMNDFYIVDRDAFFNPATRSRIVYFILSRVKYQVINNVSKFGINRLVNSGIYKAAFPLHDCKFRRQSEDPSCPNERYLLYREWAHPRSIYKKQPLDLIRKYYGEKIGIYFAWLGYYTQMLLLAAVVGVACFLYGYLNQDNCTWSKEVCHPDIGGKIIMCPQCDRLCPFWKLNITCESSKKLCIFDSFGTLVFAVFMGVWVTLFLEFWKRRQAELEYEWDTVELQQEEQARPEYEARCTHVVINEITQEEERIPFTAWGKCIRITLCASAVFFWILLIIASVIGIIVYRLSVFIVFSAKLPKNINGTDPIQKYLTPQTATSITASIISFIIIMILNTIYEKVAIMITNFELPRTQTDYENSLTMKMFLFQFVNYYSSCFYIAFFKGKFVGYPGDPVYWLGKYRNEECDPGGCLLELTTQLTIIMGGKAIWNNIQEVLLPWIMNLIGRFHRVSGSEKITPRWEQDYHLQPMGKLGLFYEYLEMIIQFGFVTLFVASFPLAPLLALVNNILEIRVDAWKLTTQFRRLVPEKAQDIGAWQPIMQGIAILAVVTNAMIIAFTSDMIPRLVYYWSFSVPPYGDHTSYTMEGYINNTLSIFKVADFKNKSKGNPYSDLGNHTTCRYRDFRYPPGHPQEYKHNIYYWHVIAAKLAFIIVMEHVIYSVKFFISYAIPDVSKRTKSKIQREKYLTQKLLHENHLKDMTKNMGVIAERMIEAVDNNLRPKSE
Procedure, shortened: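 Inhibition was normalised between ionomycin-only (0%) and untreated (100%) wells, with triplicates averaged. Readout was background-corrected Lact-C2-GFP (500 nM) fluorescence from imaged cells. The cells were FRT cells stably expressing human ANO6, given compound at 1% DMSO for 10 min before a 10 min 10 μM ionomycin challenge.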

human ANO6 [2] = target: T1, human ANO6; assay: YFP quenching assay (ANO6 ion channel activity); assay type: cell-based; details: 10 μM ionomycin; for inhibition at 1 µM: test compound 1 μM, read-out: Inhibition Level 1 μM; for inhibition at 30 µM: test compound 30 μM, read-out: Inhibition Level 30 μM
Procedure, shortened: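 FRT cells stably expressing human ANO6 and YFP-H148Q/I152L/F46L, preincubated 10 min at 40° C with compounds (1% DMSO) in PBS. Quench read every 0.4 s after injecting 140 mM SCN- with 10 μM ionomycin; % inhibition from the 3.6–7.6 s fluorescence difference, normalised to no-ionomycin (100%) and ionomycin-only (0%) wells, duplicate or triplicate.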

Compound | inhibition at 0.1 µM (human ANO6 [1]) [%] | inhibition at 1 µM (human ANO6 [1]) [%] | inhibition at 1 µM (human ANO6 [2]) [%] | inhibition at 30 µM (human ANO6 [2]) [%]
CCCNC(=O)c1cccc(Nc2ccc(-c3ccccc3)nn2)c1 [Compound A68] | < 30 | < 30 | ≥ 60 | ≥ 60
O=C(NCc1ccsc1)c1cccc(Nc2ccc(-c3ccccc3)nn2)c1 [Compound 44, 3-[(6-phenylpyridazin-3-yl)amino]-N-[(thiophen-3-yl)methyl]benzamide] | – | < 30 | ≥ 60 | –
CC(C)NC(=O)c1cccc(Nc2ccc(-c3ccccc3)nn2)c1 [Compound A12] | < 30 | < 30 | ≥ 60 | ≥ 60
O=C(NCc1ccc(Br)cc1)c1cccc(Nc2ccc(-c3ccccc3)nn2)c1 [Compound A43] | < 30 | 30 to 60 | ≥ 60 | ≥ 60
O=C(NC1CCCCC1)c1cccc(Nc2ccc(-c3ccc(F)cc3)nn2)c1 [Compound A2] | < 30 | < 30 | ≥ 60 | ≥ 60
O=C(NCc1ccccc1)c1cccc(Nc2ccc(-c3cccc(F)c3)nn2)c1 [Compound A34] | < 30 | < 30 | ≥ 60 | ≥ 60
O=C(NC1CCC1)c1cccc(Nc2ccc(-c3ccccc3)nn2)c1 [Compound 25, N-cyclobutyl-3-[(6-phenylpyridazin-3-yl)amino]benzamide] | – | 30 to 60 | 30 to 60 | ≥ 60
O=C(NCC1CCC1)c1cccc(Nc2ccc(-c3ccccc3)nn2)c1 [Compound 30, N-(cyclobutylmethyl)-3-[(6-phenylpyridazin-3-yl)amino]benzamide] | – | 30 to 60 | ≥ 60 | ≥ 60
Cc1cccc(CNC(=O)c2cccc(Nc3ccc(-c4ccc(F)cc4)nn3)c2)c1 [Compound A5] | < 30 | < 30 | ≥ 60 | ≥ 60
O=C(NCCCc1ccccc1)c1cccc(Nc2cnc(-c3ccccc3)cn2)c1 [Compound 54, N-(3-phenylpropyl)-3-[(5-phenylpyrazin-2-yl)amino]benzamide] | – | < 30 | ≥ 60 | –
CCOCCCNC(=O)c1cccc(Nc2ccc(-c3ccccc3)nn2)c1 [Compound A67] | < 30 | < 30 | ≥ 60 | ≥ 60
Cc1ccccc1CNC(=O)c1cccc(Nc2ccc(-c3ccccc3)nn2)c1 [Compound A48] | < 30 | 30 to 60 | ≥ 60 | ≥ 60
CCCCNC(=O)c1cccc(Nc2ccc(-c3ccc(F)cc3)nn2)c1 [Compound A10] | < 30 | < 30 | ≥ 60 | ≥ 60
CCCCCCNC(=O)c1cccc(Nc2ccc(-c3ccccc3)nn2)c1 [Compound A37] | 30 to 60 | ≥ 60 | ≥ 60 | ≥ 60
Cc1ccc(CNC(=O)c2cccc(Nc3ccc(-c4ccccc4)nn3)c2)o1 [Compound A8] | < 30 | < 30 | ≥ 60 | ≥ 60
CCOc1ccc(CNC(=O)c2cccc(Nc3ccc(-c4ccccc4)nn3)c2)cc1OCC [Compound A54] | < 30 | < 30 | 30 to 60 | ≥ 60
CCCCNC(=O)c1cccc(Nc2ccc(-c3ccccc3)nn2)c1 [Compound A65] | < 30 | 30 to 60 | ≥ 60 | ≥ 60
CC(C)CCNC(=O)c1cccc(Nc2ccc(-c3ccccc3)nn2)c1 [Compound A70] | 30 to 60 | ≥ 60 | ≥ 60 | ≥ 60

Compound | inhibition at 0.1 µM (human ANO6 [1]) [%] | inhibition at 1 µM (human ANO6 [1]) [%] | inhibition at 1 µM (human ANO6 [2]) [%] | inhibition at 30 µM (human ANO6 [2]) [%]
CC(C)c1ccc(CNC(=O)c2cccc(Nc3ccc(-c4ccccc4)nn3)c2)cc1 [Compound A53] | < 30 | < 30 | ≥ 60 | ≥ 60
O=C(NCC1CC1)c1cccc(Nc2ccc(-c3ccccc3)nn2)c1 [Compound 32, N-(cyclopropylmethyl)-3-[(6-phenylpyridazin-3-yl)amino]benzamide] | – | < 30 | ≥ 60 | ≥ 60
CNC(=O)c1cccc(Nc2ccc(-c3ccccc3)nn2)c1 [Compound 41, N-methyl-3-[(6-phenylpyridazin-3-yl)amino]benzamide] | – | < 30 | 30 to 60 | ≥ 60
CC(C)(C)CNC(=O)c1cccc(Nc2ccc(-c3ccccc3)nn2)c1 [Compound 24, N-(2,2-dimethylpropyl)-3-[(6-phenylpyridazin-3-yl)amino]benzamide] | – | < 30 | 30 to 60 | ≥ 60
O=C(NCc1ccccc1)c1cccc(Nc2ccc(-c3ccc(F)cc3)nn2)c1 [Compound A16] | < 30 | < 30 | 30 to 60 | ≥ 60
O=C(NCc1ccc(Br)cc1)c1cccc(Nc2ccc(-c3ccc(F)cc3)nn2)c1 [Compound A26] | < 30 | < 30 | 30 to 60 | ≥ 60
CSc1ccc(CNC(=O)c2cccc(Nc3ccc(-c4ccccc4)nn3)c2)cc1 [Compound A44] | < 30 | 30 to 60 | 30 to 60 | ≥ 60
O=C(NCCCN1CCCC1)c1cccc(Nc2ccc(-c3ccccc3)nn2)c1 [Compound 21, 3-[(6-phenylpyridazin-3-yl)amino]-N-[3-(pyrrolidin-1-yl)propyl]benzamide] | – | – | < 30 | < 30
Cc1ccc(-c2ccc(Nc3cccc(C(=O)NCc4ccc(Cl)cc4)c3)nn2)cc1 [Compound A28] | – | – | – | 30 to 60
Cc1ccc(CNC(=O)c2cccc(Nc3nccc(-c4ccccc4)n3)c2)o1 [Compound 89, N-[(5-methylfuran-2-yl)methyl]-3-[(4-phenylpyrimidin-2-yl)amino]benzamide] | – | – | < 30 | –
O=C(NCC1CCCO1)c1cccc(Nc2ncc(-c3cccc(F)c3)cn2)c1 (stereo not shown) [Compound A83] | – | – | 30 to 60 | –
O=C(NC1CCCc2ccccc21)c1cccc(Nc2ccc(-c3ccccc3)nn2)c1 (stereo not shown) [Compound A56] | – | – | 30 to 60 | ≥ 60
COc1ccccc1NC(=O)c1cccc(Nc2ccc(-c3ccccc3)nn2)c1 [Compound A71] | – | – | – | 30 to 60
O=C(NCc1ccc2c(c1)OCO2)c1cccc(Nc2ccc(-c3ccc(F)cc3)nn2)c1 [Compound A17] | – | – | 30 to 60 | ≥ 60
Cc1ccc(CNC(=O)c2cccc(Nc3ncc(-c4cnc5ccccc5c4)cn3)c2)o1 [Compound 104, N-[(5-methylfuran-2-yl)methyl]-3-{[5-(quinolin-3-yl)pyrimidin-2-yl]amino}benzamide] | – | – | < 30 | –
Cc1ccc(CNC(=O)c2cccc(Nc3ccc(-c4c(C)noc4C)nn3)c2)o1 [Compound 72, 3-{[6-(3,5-dimethyl-1,2-oxazol-4-yl)pyridazin-3-yl]amino}-N-[(5-methylfuran-2-yl)methyl]benzamide] | – | – | < 30 | –
Cc1ccc(CNC(=O)c2cccc(Nc3cnc(-c4ccccc4)nc3)c2)o1 [Compound 11, N-[(5-methylfuran-2-yl)methyl]-3-[(2-phenylpyrimidin-5-yl)amino]benzamide] | – | – | 30 to 60 | ≥ 60
Cc1ccc(CNC(=O)c2cccc(Nc3ccc(CC(C)C)nn3)c2)o1 [Compound 61, N-[(5-methylfuran-2-yl)methyl]-3-{[6-(2-methylpropyl)pyridazin-3-yl]amino}benzamide] | – | – | < 30 | –
